# From patent US20230042936A1, “PYRIDO[2,3-d]PYRIMIDIN-7(8H)-ONES AS CDK INHIBITORS” (PROSENESTAR LLC, priority 2020, published 2023)
# Like-named read-outs stand apart in the source and are kept apart here.
# Columns and labels:
# DYRK2 = biological target: T1, DYRK2 (Homo sapiens, UniProt Q92630); assay: Kinase profiling; type: biochemical; conditions: 10 semi-logarithmic dilutions from 50 μM, singlicate; read-out: IC50 DYRK2
# T1 sequence (Q92630 1-601): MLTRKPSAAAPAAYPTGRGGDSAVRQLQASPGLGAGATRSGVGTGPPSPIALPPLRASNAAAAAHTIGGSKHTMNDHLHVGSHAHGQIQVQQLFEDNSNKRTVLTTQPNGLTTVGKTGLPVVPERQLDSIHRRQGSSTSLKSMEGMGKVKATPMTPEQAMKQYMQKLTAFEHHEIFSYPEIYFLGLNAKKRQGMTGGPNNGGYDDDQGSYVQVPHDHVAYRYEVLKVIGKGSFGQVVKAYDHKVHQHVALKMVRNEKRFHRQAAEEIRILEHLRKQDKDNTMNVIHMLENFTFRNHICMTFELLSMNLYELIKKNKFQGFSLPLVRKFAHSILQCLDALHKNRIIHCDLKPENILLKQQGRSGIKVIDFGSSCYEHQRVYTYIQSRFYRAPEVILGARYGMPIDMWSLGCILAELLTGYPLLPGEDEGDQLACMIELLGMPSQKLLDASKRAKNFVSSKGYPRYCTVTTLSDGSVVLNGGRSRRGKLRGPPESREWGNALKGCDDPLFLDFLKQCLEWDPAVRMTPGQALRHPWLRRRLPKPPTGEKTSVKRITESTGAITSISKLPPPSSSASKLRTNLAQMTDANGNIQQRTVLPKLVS
# [1] = system: panel of 27 kinases (CDK family members); assay: Kinase profiling, results in words; type: biochemical; conditions: from Table 1
# CDK5/p35NCK = CDK5/p35NCK (Homo sapiens, UniProt Q00535); assay: Kinase profiling; type: biochemical; conditions: 10 semi-logarithmic dilutions from 50 μM, singlicate
# DYRK1A = DYRK1A (Homo sapiens, UniProt Q13627); assay: Kinase profiling; type: biochemical; conditions: 10 semi-logarithmic dilutions from 50 μM, singlicate
# AKT1 aa1-480 = biological target: T2, AKT1 aa1-480 (Homo sapiens, UniProt P31749); assay: Kinase profiling; type: biochemical; conditions: 10 semi-logarithmic dilutions from 50 μM, singlicate
# T2 construct: AKT1 aa1-480
# T2 sequence (P31749 whole entry, the tested form may be a part): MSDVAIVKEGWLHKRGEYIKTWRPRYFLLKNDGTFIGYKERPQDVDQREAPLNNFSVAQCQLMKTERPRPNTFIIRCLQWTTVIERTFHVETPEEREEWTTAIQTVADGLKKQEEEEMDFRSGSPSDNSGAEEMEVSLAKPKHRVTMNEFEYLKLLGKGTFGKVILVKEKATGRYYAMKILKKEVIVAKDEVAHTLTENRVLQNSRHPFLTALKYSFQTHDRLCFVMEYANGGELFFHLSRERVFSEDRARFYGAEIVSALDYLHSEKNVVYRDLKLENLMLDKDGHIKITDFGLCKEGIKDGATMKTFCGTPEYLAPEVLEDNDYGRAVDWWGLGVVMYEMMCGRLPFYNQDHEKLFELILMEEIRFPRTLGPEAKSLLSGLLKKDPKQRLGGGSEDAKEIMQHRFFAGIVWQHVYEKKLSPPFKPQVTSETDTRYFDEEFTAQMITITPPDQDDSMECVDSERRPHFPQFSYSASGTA
# CDK3/CycE1 = CDK3/CycE1 (Homo sapiens, UniProt Q00526); assay: Kinase profiling; type: biochemical; conditions: 10 semi-logarithmic dilutions from 50 μM, singlicate
# Chain of CDK3/CycE1 (Q00526 whole entry): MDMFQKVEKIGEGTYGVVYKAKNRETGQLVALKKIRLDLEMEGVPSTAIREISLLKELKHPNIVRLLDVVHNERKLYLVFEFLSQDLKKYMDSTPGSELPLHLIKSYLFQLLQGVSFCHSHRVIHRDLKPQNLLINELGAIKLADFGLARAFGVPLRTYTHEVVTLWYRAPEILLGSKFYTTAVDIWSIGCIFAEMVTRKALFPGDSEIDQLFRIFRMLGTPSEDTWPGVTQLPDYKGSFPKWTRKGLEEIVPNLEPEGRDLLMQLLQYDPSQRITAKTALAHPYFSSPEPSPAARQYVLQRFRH
# Chain of CDK3/CycE1 (P24864 whole entry partner): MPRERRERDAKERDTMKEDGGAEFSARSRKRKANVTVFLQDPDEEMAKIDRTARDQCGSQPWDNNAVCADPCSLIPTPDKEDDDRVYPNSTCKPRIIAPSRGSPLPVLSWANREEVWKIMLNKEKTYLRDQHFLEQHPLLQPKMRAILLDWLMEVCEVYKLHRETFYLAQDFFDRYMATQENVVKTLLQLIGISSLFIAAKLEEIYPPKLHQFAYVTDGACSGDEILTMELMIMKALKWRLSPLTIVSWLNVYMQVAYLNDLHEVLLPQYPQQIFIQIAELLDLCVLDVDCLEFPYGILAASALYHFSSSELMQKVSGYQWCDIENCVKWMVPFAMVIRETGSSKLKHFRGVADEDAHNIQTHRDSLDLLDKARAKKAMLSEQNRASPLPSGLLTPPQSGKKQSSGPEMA
# ERK1 = ERK1 (Homo sapiens, UniProt P27361); assay: Kinase profiling; type: biochemical; conditions: 10 semi-logarithmic dilutions from 50 μM, singlicate
# Chain of ERK1 (P27361 whole entry): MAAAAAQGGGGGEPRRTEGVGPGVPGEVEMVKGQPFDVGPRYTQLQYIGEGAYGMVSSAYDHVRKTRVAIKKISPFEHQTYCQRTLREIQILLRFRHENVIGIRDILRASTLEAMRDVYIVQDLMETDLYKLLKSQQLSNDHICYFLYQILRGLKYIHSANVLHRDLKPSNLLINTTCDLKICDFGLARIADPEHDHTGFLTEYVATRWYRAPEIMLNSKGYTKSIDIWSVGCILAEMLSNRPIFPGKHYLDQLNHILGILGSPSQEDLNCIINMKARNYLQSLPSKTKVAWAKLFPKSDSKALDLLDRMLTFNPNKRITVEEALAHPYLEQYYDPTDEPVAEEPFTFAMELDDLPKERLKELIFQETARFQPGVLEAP
# CDK12wt/CycK = CDK12wt/CycK (Homo sapiens, UniProt Q9NYV4); assay: Kinase profiling; type: biochemical; conditions: 10 semi-logarithmic dilutions from 50 μM, singlicate
# CDK9/CycT1 = CDK9/CycT1 (Homo sapiens, UniProt P50750); assay: Kinase profiling; type: biochemical; conditions: 10 semi-logarithmic dilutions from 50 μM, singlicate
# CDK6/CycD1 = CDK6/CycD1 (Homo sapiens, UniProt Q00534); assay: Kinase profiling; type: biochemical; conditions: 10 semi-logarithmic dilutions from 50 μM, singlicate
# Chain of CDK6/CycD1 (Q00534 whole entry): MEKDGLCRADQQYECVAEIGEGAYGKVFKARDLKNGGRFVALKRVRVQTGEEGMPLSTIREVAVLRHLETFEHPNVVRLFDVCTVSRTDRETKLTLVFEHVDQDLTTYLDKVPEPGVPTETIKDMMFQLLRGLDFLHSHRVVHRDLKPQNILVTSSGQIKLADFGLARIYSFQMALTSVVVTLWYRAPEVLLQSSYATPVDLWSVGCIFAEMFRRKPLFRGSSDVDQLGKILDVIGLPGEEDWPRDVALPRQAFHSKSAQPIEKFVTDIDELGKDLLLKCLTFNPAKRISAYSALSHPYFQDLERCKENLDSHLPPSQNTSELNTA
# Chain of CDK6/CycD1 (P24385 whole entry partner): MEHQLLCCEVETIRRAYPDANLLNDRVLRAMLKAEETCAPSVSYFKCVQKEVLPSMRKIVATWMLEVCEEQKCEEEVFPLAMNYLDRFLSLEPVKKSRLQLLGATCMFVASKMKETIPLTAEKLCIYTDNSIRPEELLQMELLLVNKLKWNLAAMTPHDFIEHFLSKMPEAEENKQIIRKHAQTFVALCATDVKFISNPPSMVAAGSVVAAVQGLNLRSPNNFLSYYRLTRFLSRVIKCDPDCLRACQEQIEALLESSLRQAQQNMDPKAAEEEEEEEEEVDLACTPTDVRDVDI
# PCTAIRE1/CycY = PCTAIRE1/CycY (Homo sapiens, UniProt Q00536); assay: Kinase profiling; type: biochemical; conditions: 10 semi-logarithmic dilutions from 50 μM, singlicate
# CDK6/CycD3 = CDK6/CycD3 (Homo sapiens, UniProt Q00534); assay: Kinase profiling; type: biochemical; conditions: 10 semi-logarithmic dilutions from 50 μM, singlicate
# Chain of CDK6/CycD3 (Q00534 whole entry): as the sequence (Q00534 whole entry) above
# Chain of CDK6/CycD3 (P30281 whole entry partner): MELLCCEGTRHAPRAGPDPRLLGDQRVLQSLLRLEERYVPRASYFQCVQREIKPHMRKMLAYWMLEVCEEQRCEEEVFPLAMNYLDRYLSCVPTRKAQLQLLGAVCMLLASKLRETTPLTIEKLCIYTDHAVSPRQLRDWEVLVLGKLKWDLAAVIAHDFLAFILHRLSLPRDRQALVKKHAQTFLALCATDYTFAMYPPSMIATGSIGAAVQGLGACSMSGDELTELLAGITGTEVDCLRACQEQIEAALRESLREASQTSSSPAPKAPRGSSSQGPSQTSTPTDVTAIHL
# CDK9/CycK = CDK9/CycK (Homo sapiens, UniProt P50750); assay: Kinase profiling; type: biochemical; conditions: 10 semi-logarithmic dilutions from 50 μM, singlicate
# CDC7/DBF4 = CDC7/DBF4 (Homo sapiens, UniProt O00311); assay: Kinase profiling; type: biochemical; conditions: 10 semi-logarithmic dilutions from 50 μM, singlicate; read-out: IC50 CDC7/DBF4
# Chain of CDC7/DBF4 (O00311 whole entry): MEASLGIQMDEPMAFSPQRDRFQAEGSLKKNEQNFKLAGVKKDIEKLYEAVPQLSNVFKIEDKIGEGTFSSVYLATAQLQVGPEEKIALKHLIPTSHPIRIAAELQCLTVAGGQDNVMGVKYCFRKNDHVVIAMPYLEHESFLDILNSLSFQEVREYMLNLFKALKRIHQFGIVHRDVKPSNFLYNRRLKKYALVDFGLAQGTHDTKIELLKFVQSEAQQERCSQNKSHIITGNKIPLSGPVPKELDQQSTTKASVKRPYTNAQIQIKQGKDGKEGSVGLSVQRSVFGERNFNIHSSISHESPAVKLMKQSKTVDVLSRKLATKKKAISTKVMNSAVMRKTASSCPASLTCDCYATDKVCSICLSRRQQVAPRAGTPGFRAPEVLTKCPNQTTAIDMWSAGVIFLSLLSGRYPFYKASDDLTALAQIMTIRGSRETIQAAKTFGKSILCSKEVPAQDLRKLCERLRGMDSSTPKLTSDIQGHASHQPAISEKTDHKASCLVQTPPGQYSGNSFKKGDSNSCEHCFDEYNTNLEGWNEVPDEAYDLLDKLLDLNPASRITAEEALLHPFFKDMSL
# Chain of CDC7/DBF4 (Q9UBU7 whole entry partner): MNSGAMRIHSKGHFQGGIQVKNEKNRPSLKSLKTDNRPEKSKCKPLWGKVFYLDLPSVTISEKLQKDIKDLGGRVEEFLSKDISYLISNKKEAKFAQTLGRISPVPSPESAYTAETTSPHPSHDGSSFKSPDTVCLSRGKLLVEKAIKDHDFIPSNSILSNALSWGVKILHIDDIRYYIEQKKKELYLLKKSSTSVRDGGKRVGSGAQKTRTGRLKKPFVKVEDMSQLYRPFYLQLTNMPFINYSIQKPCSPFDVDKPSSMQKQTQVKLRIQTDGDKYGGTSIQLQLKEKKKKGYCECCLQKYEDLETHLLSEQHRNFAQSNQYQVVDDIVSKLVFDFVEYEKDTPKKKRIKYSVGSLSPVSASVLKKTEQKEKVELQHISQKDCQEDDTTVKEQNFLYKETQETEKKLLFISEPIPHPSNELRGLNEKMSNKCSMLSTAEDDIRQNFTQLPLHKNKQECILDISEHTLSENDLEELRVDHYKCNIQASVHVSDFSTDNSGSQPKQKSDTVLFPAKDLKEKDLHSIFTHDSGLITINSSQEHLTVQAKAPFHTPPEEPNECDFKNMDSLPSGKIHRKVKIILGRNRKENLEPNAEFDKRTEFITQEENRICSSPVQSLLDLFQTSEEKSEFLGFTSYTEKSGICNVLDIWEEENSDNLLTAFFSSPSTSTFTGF
# [2] = system: MCF10 non-transformed mammary epithelial cell line; assay: Proliferation assay: determination of GI50; type: cell-based, human; conditions: Homo sapiens, MCF10; Table 3; 48 h; n = 2 independent experiments
# Protocol: (§1) The following human tumor cell lines, all Retinoblastoma (Rb)-proficient, were used in this study: MDA-MB231 (breast cancer), MDA-MB453 (breast cancer), U87MG (glioblastoma) and H460 (lung cancer). MDA-MB468 (breast cancer) and SW1783 (glioblastoma) Rb-deficient cells were also included in the study, as well as the MCF10A non-transformed mammary epithelial cell line. Tumor cell lines were maintained in DMEM or RPMI-1640 medium, depending on the cell line, supplemented with 10% FBS. MCF10A cells were grown in complete mammary epithelial growth medium (MEGM, Lonza). Cell lines were authenticated by short tandem repeat (STR) loci profiling with the GenePrint® 10 System (Promega).
# (§2) All human cancer cell lines (Table 2) were obtained from the American Type Culture Collection, and were maintained in DMEM (Hyclone) or RPMI-1640 medium (Sigma) supplemented with 10% fetal bovine serum (Sigma). Non-transformed MCF10 cell line was maintained in MEGM Mammary Epithelial Cell Growth Medium (Lonza). Immortalized mouse embryonic fibroblasts (MEFs) were maintained in DMEM with 10% fetal bovine serum.
# (§3) 48 h later cells were fixed with PFA 4% for 15 minutes, stained with 10 μg/ml Hoechst 33342 (Molecular Probes, Thermo Fisher) for 30 minutes and washed twice with PBS. Cells were imaged in a high content screening system (Opera Phoenix™, Perkin Elmer) using a 20× dry objective (30 fields/well). Cell counts were determined by the Opera software (Perkin Elmer) and data were further processed with SPSS software. GI50 was calculated by estimating the absolute IC50 using dose-response inhibition tool in Prism6 (Graphpad Software Inc.).
# [3] = system: H460 lung carcinoma cell line; assay: Proliferation assay: determination of GI50; type: cell-based, human; conditions: Homo sapiens, NCI-H460; Table 3; 48 h; n = 2 independent experiments
# Protocol: as §1, §2, §3
# [4] = system: U87MG glioblastoma cell line; assay: Proliferation assay: determination of GI50; type: cell-based, human; conditions: Homo sapiens, U-87 MG
# Protocol: as §1, §2, §3
# [5] = system: MDA-MB-231 breast carcinoma cell line; assay: Proliferation assay: determination of GI50; type: cell-based, human; conditions: Homo sapiens, MDA-MB-231
# Protocol: as §1, §2, §3
# CDK2/CycE1 = CDK2/CycE1 (Homo sapiens, UniProt P24941); assay: Kinase profiling; type: biochemical; conditions: 10 semi-logarithmic dilutions from 50 μM, singlicate
# CDK1/CycE1 = CDK1/CycE1 (Homo sapiens, UniProt P06493); assay: Kinase profiling; type: biochemical; conditions: 10 semi-logarithmic dilutions from 50 μM, singlicate
# Chain of CDK1/CycE1 (P06493 whole entry): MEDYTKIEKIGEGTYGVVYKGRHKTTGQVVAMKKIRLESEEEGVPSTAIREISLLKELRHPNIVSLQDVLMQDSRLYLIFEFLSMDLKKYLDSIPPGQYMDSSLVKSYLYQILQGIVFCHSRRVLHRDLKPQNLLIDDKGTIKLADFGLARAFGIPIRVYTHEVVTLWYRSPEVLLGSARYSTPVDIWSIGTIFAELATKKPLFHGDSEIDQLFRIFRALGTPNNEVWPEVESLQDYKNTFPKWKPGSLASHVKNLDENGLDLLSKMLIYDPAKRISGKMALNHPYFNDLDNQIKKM
# Chain of CDK1/CycE1 (P24864 whole entry partner): as the sequence (P24864 whole entry partner) above
# CDK1/CycB1 = CDK1/CycB1 (Homo sapiens, UniProt P06493); assay: Kinase profiling; type: biochemical; conditions: 10 semi-logarithmic dilutions from 50 μM, singlicate
# Chain of CDK1/CycB1 (P06493 whole entry): as the sequence (P06493 whole entry) above
# Chain of CDK1/CycB1 (P14635 whole entry partner): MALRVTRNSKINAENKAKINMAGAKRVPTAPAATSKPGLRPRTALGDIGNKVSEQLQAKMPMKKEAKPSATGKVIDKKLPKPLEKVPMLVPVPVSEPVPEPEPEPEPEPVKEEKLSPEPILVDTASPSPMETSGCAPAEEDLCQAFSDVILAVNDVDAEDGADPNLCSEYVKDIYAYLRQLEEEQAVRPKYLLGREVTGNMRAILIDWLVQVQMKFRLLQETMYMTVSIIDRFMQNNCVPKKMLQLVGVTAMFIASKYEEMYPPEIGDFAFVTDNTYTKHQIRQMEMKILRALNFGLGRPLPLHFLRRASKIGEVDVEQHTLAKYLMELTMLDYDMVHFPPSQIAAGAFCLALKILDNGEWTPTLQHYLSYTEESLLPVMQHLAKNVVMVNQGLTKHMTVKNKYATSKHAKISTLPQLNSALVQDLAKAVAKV
# [6] = Table 3, 48 h, n = 3 independent experiments, read-out: GI50 U87MG
# [7] = Table 4, n = 4, read-out: Growth inhibition GI50, Glioblastoma pRB Wild-Type U87MG
# [8] = Table 3, 48 h, n = 3 independent experiments, read-out: GI50 MDA-MB231
# [9] = Table 4, n = 4, read-out: Growth inhibition GI50, Breast cancer pRB Wild-Type MDA-MB-231
IC50 (DYRK2) [µM],IC50 (CDK5/p35NCK) [µM],IC50 (DYRK1A) [µM],IC50 (AKT1 aa1-480) [µM],IC50 (CDK3/CycE1) [µM],IC50 (ERK1) [µM],IC50 (CDK12wt/CycK) [µM],IC50 (CDK9/CycT1) [µM],IC50 (CDK6/CycD1) [µM],IC50 (PCTAIRE1/CycY) [µM],IC50 (CDK6/CycD3) [µM],IC50 (CDK9/CycK) [µM],IC50 (CDC7/DBF4) [µM],GI50 [3] [µM],"GI50 [4, 6] [µM]","GI50 [5, 8] [µM]",IC50 (CDK2/CycE1) [µM],IC50 (CDK1/CycE1) [µM],IC50 (CDK1/CycB1) [µM],SMILES,GI50 [2] [µM],further results
2.31,0.0159,1.18,11.6,0.0119,2.75,0.0258,0.0136,< 0.0015,0.00404,0.00966,0.00717,0.537,0.16,0.04,0.15,0.0078,0.0408,0.0973,"O=c1ccc2cnc(Nc3ccc(N4CCNCC4)cc3)nc2n1[C@@H]1CC2CCC1C2 (stereo partly drawn) [PS007, 8-((2R)-bicyclo[2.2.1]heptan-2-yl)-2-((4-(piperazin-1-yl)phenyl)amino)pyrido[2,3-d]pyrimidin-7(8H)-one]",0.07,kinase affinity profile [1]: bind many other CDK family members
9.24,3.68,11.8,> 50,25.9,0.949,28.1,0.175,0.0195,35.9,0.672,0.0675,> 50,2.57,2.44,4.5,3.64,3.04,0.721,"CC(=O)c1c(C)c2cnc(Nc3ccc(N4CCC(CCCO)CC4)cc3)nc2n([C@@H]2CC3CCC2C3)c1=O (stereo partly drawn) [PS008, 6-acetyl-8-((2R)-bicyclo[2.2.1]heptan-2-yl)-2-((4-(4-(3-hydroxypropyl)piperidin-1-yl)phenyl)amino)-5-methylpyrido[2,3-d]pyrimidin-7(8H)-one]",0.7,additional affinity for CDK1/2 [1]: additional affinity
1.26,0.113,3.65,> 50,0.7,22.1,0.799,0.0366,0.00183,4.31,0.0212,0.012,13.5,0.37,0.16,0.5,0.277,1.44,2.05,"CC(=O)c1c(C)c2cnc(Nc3ccc(N4CCNCC4)cc3)nc2n([C@@H]2CC3CCC2C3)c1=O (stereo partly drawn) [PS010, 6-acetyl-8-((2R)-bicyclo[2.2.1]heptan-2-yl)-5-methyl-2-((4-(piperazin-1-yl)phenyl)amino)pyrido[2,3-d]pyrimidin-7(8H)-one]",0.08,affinity for CDK5 [1]: presented affinity
19.7,0.255,28.8,> 50,0.0934,10.7,0.339,0.0925,0.00742,2.02,0.0333,0.0469,1.98,0.44,1.12,1.23,0.0717,0.527,0.614,"O=c1ccc2cnc(Nc3ccc(N4CCC(OCC5(CO)COC5)CC4)cc3)nc2n1[C@@H]1CC2CCC1C2 (stereo partly drawn) [PS016, 8-((2R)-bicyclo[2.2.1]heptan-2-yl)-2-((4-(4-((3-(hydroxymethyl)oxetan-3-yl)methoxy)piperidin-1-yl)phenyl)amino)pyrido[2,3-d]pyrimidin-7(8H)-one]",0.13,additional affinity for CDK1/2 [1]: additional affinity; affinity for CDK5 [1]: presented affinity

SMILES,IC50 (DYRK2) [µM],IC50 (CDK5/p35NCK) [µM],IC50 (DYRK1A) [µM],IC50 (AKT1 aa1-480) [µM],IC50 (CDK3/CycE1) [µM],IC50 (ERK1) [µM],IC50 (CDK12wt/CycK) [µM],IC50 (CDK9/CycT1) [µM],IC50 (CDK6/CycD1) [µM],IC50 (PCTAIRE1/CycY) [µM],IC50 (CDK6/CycD3) [µM],IC50 (CDK9/CycK) [µM],IC50 (CDC7/DBF4) [µM],GI50 [3] [µM],"GI50 [4, 6] [µM]","GI50 [5, 8] [µM]",IC50 (CDK2/CycE1) [µM],IC50 (CDK1/CycE1) [µM],IC50 (CDK1/CycB1) [µM],GI50 [2] [µM],further results
"CC(O)COC1CCN(c2ccc(Nc3ncc4ccc(=O)n([C@@H]5CC6CCC5C6)c4n3)cc2)CC1 (stereo partly drawn) [PS006, 8-((2R)-bicyclo[2.2.1]heptan-2-yl)-2-((4-(4-(2-hydroxypropoxy)piperidin-1-yl)phenyl)amino)pyrido[2,3-d]pyrimidin-7(8H)-one]",> 50,0.771,46.8,> 50,0.306,8.32,1.01,0.264,0.0125,3.84,0.108,0.148,5.57,0.19,2.34,1.4,0.108,1.21,1.96,0.42,"affinity for CDK5 [1]: presented affinity; kinase affinity profile [1]: high affinity for CDK6/2/5/9; GI50 [4, 7]: 2.2 µM; GI50 [5, 9]: 1.7 µM"
"CC(=O)c1c(C)c2cnc(Nc3ccc(N4CCC(CCCO)CC4)cc3)nc2n(C2CCCC2)c1=O [PS009, 6-acetyl-8-cyclopentyl-2-((4-(4-(3-hydroxypropyl)piperidin-1-yl)phenyl)amino)-5-methylpyrido[2,3-d]pyrimidin-7(8H)-one]",> 50,1.86,> 50,> 50,17.1,48.9,17.4,0.193,0.013,> 50,0.125,0.056,> 50,1.55,0.9,3,2.94,19.7,32.5,1.17,"additional affinity for CDK1/2 [1]: additional affinity; kinase affinity profile [1]: mainly bound to CDK4/6/ with also an interesting preference for CDK2 and CDK9; GI50 [4, 7]: 6.9 µM; GI50 [5, 9]: 3.3 µM"
